This note sets out measurements from PMC10853903 (Analytical Chemistry, 2024).

In the assay the target is agglutinin 120 from Ricinus communis (RCA120) (Ricinus communis, UniProt P06750). Put plainly: biochemical. It counts as binding.

Broadly, the Kd is a measure of binding affinity in units of concentration. A high value points to weaker binding.

In turn, `CO[C@@H]1O[C@H](CO)[C@H](O)[C@H](O)[C@H]1O` [methyl-β-D-galactoside] registered a Kd of 271 µM.
